ChEMBL document CHEMBL4507316 (2021)

Assays:
[1] = biological target: Calcium/calmodulin-dependent protein kinase type II subunit delta (Homo sapiens) (UniProt Q13557); assay: CAMK2D ProQinase selectivity panel; conditions: Compound concentration 1.0 uM
[2] = biological target: Serine/threonine-protein kinase pim-2 (Homo sapiens) (UniProt Q9P1W9); assay: PIM2 ProQinase selectivity panel; conditions: Compound concentration 1.0 uM
[3] = biological target: Serine/threonine-protein kinase BRSK1 (Homo sapiens) (UniProt Q8TDC3); assay: BRSK1 ProQinase selectivity panel; conditions: Compound concentration 1.0 uM
[4] = biological target: NT-3 growth factor receptor (Homo sapiens) (UniProt Q16288); assay: TRK-C ProQinase selectivity panel; conditions: Compound concentration 1.0 uM
[5] = system: Epidermal growth factor receptor (Homo sapiens), P00533 [T790M]; assay: EGF-R T790M ProQinase selectivity panel; conditions: Compound concentration 1.0 uM
[6] = biological target: Ephrin type-A receptor 8 (Homo sapiens) (UniProt P29322); assay: EPHA8 ProQinase selectivity panel; conditions: Compound concentration 1.0 uM
[7] = system: Fibroblast growth factor receptor 3 (Homo sapiens), P22607 [K650E]; assay: FGF-R3 K650E ProQinase selectivity panel; conditions: Compound concentration 1.0 uM
[8] = biological target: Ephrin type-A receptor 1 (Homo sapiens) (UniProt P21709); assay: EPHA1 ProQinase selectivity panel; conditions: Compound concentration 1.0 uM
[9] = biological target: Vascular endothelial growth factor receptor 3 (Homo sapiens) (UniProt P35916); assay: VEGF-R3 ProQinase selectivity panel; conditions: Compound concentration 1.0 uM
[10] = biological target: Muscarinic acetylcholine receptor M1 (Homo sapiens) (UniProt P11229); conditions: Compound concentration 10.0 uM
[11] = biological target: Mitogen-activated protein kinase kinase kinase 7 (Homo sapiens) (UniProt O43318); assay: MAP3K7/MAP3K7IP1 ProQinase selectivity panel; conditions: Compound concentration 1.0 uM
[12] = system: Hepatocyte growth factor receptor (Homo sapiens), P08581 [D1228N]; assay: MET D1228N ProQinase selectivity panel; conditions: Compound concentration 1.0 uM
[13] = biological target: Mitogen-activated protein kinase kinase kinase kinase 4 (Homo sapiens) (UniProt O95819); assay: MAP4K4 ProQinase selectivity panel; conditions: Compound concentration 1.0 uM
[14] = system: Epidermal growth factor receptor (Homo sapiens), P00533 [G719C]; assay: EGF-R G719C ProQinase selectivity panel; conditions: Compound concentration 1.0 uM
[15] = biological target: Serine/threonine-protein kinase Chk2 (Homo sapiens) (UniProt O96017); assay: CHK2 ProQinase selectivity panel; conditions: Compound concentration 1.0 uM
[16] = biological target: Tyrosine-protein kinase receptor UFO (Homo sapiens) (UniProt P30530); assay: AXL ProQinase selectivity panel; conditions: Compound concentration 1.0 uM
[17] = biological target: Serine/threonine-protein kinase Nek4 (Homo sapiens) (UniProt P51957); assay: NEK4 ProQinase selectivity panel; conditions: Compound concentration 1.0 uM
[18] = biological target: Beta-adrenergic receptor kinase 1 (Homo sapiens) (UniProt P25098); assay: GRK2 ProQinase selectivity panel; conditions: Compound concentration 1.0 uM
[19] = system: Receptor-type tyrosine-protein kinase FLT3 (Homo sapiens), P36888 [D835Y]; assay: FLT3 D835Y ProQinase selectivity panel; conditions: Compound concentration 1.0 uM
[20] = biological target: Serine/threonine-protein kinase Nek6 (Homo sapiens) (UniProt Q9HC98); assay: NEK6 ProQinase selectivity panel; conditions: Compound concentration 1.0 uM
[21] = biological target: Ribosomal protein S6 kinase alpha-3 (Homo sapiens) (UniProt P51812); assay: RPS6KA3 ProQinase selectivity panel; conditions: Compound concentration 1.0 uM
[22] = biological target: Dual specificity protein kinase CLK2 (Homo sapiens) (UniProt P49760); assay: CLK2 ProQinase selectivity panel; conditions: Compound concentration 1.0 uM
[23] = biological target: Histamine H3 receptor (Homo sapiens) (UniProt Q9Y5N1); conditions: Compound concentration 10.0 uM
[24] = biological target: MAP kinase-activated protein kinase 3 (Homo sapiens) (UniProt Q16644); assay: MAPKAPK3 ProQinase selectivity panel; conditions: Compound concentration 1.0 uM
[25] = biological target: Death-associated protein kinase 3 (Homo sapiens) (UniProt O43293); assay: DAPK3 ProQinase selectivity panel; conditions: Compound concentration 1.0 uM
[26] = biological target: G protein-coupled receptor kinase 4 (Homo sapiens) (UniProt P32298); assay: GRK4 ProQinase selectivity panel; conditions: Compound concentration 1.0 uM
[27] = biological target: Proto-oncogene tyrosine-protein kinase Src (Homo sapiens) (UniProt P12931); assay: SRC ProQinase selectivity panel; conditions: Compound concentration 1.0 uM
[28] = biological target: Serine/threonine-protein kinase 24 (Homo sapiens) (UniProt Q9Y6E0); assay: MST3 ProQinase selectivity panel; conditions: Compound concentration 1.0 uM
[29] = biological target: D(2) dopamine receptor (Homo sapiens) (UniProt P14416); conditions: Compound concentration 10.0 uM
[30] = biological target: Ephrin type-A receptor 2 (Homo sapiens) (UniProt P29317); assay: EPHA2 ProQinase selectivity panel; conditions: Compound concentration 1.0 uM
[31] = biological target: Kappa-type opioid receptor (Homo sapiens) (UniProt P41145); conditions: Compound concentration 10.0 uM
[32] = biological target: GABA-A receptor; anion channel (Rattus norvegicus) (UniProt O09028+P15431+P18506+P18508+P19969+P20236+P23574+P23576+P28471+P28473+P30191+P62813+P63079+P63138+Q91ZM7+Q9ES14); conditions: Compound concentration 10.0 uM
[33] = system: Proto-oncogene tyrosine-protein kinase receptor Ret (Homo sapiens), P07949 [V804L]; assay: RET V804L ProQinase selectivity panel; conditions: Compound concentration 1.0 uM
[34] = biological target: Dual specificity protein kinase CLK1 (Homo sapiens) (UniProt P49759); assay: CLK1 ProQinase selectivity panel; conditions: Compound concentration 1.0 uM
[35] = biological target: Tyrosine-protein kinase Lck (Homo sapiens) (UniProt P06239); assay: LCK ProQinase selectivity panel; conditions: Compound concentration 1.0 uM
[36] = system: Tyrosine-protein kinase ABL1 (Homo sapiens), P00519 [E255K]; assay: ABL1 E255K ProQinase selectivity panel; conditions: Compound concentration 1.0 uM
[37] = biological target: Interferon-induced, double-stranded RNA-activated protein kinase (Homo sapiens) (UniProt P19525); assay: EIF2AK2 ProQinase selectivity panel; conditions: Compound concentration 1.0 uM
[38] = biological target: Serine/threonine-protein kinase Sgk1 (Homo sapiens) (UniProt O00141); assay: SGK1 ProQinase selectivity panel; conditions: Compound concentration 1.0 uM
[39] = biological target: Alpha-2C adrenergic receptor (Homo sapiens) (UniProt P18825); conditions: Compound concentration 10.0 uM
[40] = biological target: Serine/threonine-protein kinase Nek1 (Homo sapiens) (UniProt Q96PY6); assay: NEK1 ProQinase selectivity panel; conditions: Compound concentration 1.0 uM
[41] = biological target: Serine/threonine-protein kinase Nek3 (Homo sapiens) (UniProt P51956); assay: NEK3 ProQinase selectivity panel; conditions: Compound concentration 1.0 uM
[42] = biological target: Tyrosine-protein kinase Fer (Homo sapiens) (UniProt P16591); assay: FER ProQinase selectivity panel; conditions: Compound concentration 1.0 uM
[43] = biological target: Ribosomal protein S6 kinase alpha-1 (Homo sapiens) (UniProt Q15418); assay: RPS6KA1 ProQinase selectivity panel; conditions: Compound concentration 1.0 uM
[44] = biological target: ALK tyrosine kinase receptor (Homo sapiens) (UniProt Q9UM73); assay: ALK ProQinase selectivity panel; conditions: Compound concentration 1.0 uM
[45] = biological target: Serine/threonine-protein kinase Nek9 (Homo sapiens) (UniProt Q8TD19); assay: NEK9 ProQinase selectivity panel; conditions: Compound concentration 1.0 uM
[46] = biological target: NUAK family SNF1-like kinase 2 (Homo sapiens) (UniProt Q9H093); assay: SNARK ProQinase selectivity panel; conditions: Compound concentration 1.0 uM
[47] = biological target: Alpha-2B adrenergic receptor (Homo sapiens) (UniProt P18089); conditions: Compound concentration 10.0 uM

Chain of Serine/threonine-protein kinase 24 (Homo sapiens) (Q9Y6E0 whole entry, looked up): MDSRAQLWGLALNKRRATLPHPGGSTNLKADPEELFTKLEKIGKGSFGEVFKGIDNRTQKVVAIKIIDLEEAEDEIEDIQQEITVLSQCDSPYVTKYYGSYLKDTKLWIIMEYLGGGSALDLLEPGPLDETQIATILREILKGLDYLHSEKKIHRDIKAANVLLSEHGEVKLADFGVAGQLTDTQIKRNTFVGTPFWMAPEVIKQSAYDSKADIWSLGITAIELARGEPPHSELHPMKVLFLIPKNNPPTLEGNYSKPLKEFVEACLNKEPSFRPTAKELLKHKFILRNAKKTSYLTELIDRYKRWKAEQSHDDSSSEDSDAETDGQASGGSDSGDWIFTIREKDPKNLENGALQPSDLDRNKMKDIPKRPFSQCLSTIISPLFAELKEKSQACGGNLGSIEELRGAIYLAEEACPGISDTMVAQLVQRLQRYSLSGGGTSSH
Chain of Serine/threonine-protein kinase pim-2 (Homo sapiens) (Q9P1W9 whole entry, looked up): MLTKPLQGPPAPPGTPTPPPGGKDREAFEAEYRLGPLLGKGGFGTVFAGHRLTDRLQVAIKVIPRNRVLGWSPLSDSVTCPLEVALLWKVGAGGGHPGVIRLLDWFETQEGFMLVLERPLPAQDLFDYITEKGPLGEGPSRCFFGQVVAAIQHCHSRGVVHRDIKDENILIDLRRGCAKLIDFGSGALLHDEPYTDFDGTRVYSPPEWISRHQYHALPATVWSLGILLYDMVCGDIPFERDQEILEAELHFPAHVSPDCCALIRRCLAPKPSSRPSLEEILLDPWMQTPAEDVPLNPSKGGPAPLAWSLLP
Chain of Ephrin type-A receptor 8 (Homo sapiens) (P29322 whole entry): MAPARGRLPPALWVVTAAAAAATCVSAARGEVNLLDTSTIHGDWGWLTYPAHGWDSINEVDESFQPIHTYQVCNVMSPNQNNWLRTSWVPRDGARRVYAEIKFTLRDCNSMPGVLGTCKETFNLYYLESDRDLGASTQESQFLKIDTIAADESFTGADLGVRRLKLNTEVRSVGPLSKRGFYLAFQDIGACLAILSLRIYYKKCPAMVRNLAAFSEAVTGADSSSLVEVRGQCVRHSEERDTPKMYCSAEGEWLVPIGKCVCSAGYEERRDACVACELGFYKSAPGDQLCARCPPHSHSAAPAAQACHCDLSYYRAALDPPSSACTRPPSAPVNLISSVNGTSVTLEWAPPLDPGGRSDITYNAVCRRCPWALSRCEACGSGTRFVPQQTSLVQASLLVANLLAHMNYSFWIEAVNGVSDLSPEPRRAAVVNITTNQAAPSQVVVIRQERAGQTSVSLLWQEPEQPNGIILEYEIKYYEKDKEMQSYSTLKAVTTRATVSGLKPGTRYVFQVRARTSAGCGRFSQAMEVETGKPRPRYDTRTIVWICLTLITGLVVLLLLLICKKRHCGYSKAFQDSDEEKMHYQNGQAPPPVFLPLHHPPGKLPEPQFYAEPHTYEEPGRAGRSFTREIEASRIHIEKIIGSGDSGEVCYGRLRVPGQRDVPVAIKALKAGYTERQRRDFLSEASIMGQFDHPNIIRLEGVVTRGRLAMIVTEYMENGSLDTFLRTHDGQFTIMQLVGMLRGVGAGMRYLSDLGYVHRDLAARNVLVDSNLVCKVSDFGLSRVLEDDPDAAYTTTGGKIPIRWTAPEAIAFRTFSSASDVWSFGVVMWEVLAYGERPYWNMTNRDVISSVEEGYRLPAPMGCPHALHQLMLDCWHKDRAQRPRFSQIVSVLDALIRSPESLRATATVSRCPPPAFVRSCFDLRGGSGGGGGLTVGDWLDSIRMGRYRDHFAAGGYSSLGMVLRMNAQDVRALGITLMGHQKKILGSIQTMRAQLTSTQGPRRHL
Chain of Tyrosine-protein kinase Fer (Homo sapiens) (P16591 whole entry, looked up): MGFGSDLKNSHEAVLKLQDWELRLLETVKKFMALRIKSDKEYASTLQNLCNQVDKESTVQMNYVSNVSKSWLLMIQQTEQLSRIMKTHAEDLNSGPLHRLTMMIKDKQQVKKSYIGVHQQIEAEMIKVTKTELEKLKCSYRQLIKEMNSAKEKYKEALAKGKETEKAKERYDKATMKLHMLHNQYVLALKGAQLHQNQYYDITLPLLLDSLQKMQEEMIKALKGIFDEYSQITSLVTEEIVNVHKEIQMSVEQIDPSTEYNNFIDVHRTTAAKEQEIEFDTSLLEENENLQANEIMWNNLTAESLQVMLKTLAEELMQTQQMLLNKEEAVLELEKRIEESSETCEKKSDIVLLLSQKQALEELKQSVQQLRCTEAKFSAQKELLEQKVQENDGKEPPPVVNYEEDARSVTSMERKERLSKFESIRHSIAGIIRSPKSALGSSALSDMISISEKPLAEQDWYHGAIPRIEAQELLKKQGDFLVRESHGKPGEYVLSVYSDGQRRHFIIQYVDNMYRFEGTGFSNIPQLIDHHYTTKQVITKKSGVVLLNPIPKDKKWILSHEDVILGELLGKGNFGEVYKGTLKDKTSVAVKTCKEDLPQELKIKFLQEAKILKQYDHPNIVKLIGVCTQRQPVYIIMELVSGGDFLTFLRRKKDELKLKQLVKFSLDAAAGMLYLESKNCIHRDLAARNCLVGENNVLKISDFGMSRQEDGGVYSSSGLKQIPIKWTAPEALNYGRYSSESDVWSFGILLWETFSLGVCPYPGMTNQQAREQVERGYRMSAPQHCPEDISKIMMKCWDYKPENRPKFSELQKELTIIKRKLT
Chain of Kappa-type opioid receptor (Homo sapiens) (P41145 whole entry): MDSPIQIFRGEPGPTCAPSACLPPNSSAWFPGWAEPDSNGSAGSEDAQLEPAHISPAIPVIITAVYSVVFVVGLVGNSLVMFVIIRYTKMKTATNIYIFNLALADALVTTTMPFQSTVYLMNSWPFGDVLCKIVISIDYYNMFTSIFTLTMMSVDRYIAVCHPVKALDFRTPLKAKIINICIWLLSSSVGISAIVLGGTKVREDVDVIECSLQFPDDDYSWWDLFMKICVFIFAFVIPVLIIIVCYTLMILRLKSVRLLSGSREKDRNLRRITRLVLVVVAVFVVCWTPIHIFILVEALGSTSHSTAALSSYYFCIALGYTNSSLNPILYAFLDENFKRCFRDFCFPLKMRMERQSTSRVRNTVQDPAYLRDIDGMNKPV
Chain of Histamine H3 receptor (Homo sapiens) (Q9Y5N1 whole entry): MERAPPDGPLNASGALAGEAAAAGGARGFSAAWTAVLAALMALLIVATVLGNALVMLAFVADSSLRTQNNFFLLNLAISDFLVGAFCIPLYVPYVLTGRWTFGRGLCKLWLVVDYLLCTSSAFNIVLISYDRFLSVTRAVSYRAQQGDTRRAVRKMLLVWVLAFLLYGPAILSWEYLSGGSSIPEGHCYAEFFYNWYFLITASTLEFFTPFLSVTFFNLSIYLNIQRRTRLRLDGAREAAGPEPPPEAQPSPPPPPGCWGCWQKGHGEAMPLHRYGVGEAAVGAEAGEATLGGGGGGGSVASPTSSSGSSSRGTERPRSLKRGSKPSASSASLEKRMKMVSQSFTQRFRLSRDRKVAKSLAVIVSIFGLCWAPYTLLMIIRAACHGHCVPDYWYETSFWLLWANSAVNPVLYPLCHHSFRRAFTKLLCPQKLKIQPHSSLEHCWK
Chain of NT-3 growth factor receptor (Homo sapiens) (Q16288 32-839 limits assumed): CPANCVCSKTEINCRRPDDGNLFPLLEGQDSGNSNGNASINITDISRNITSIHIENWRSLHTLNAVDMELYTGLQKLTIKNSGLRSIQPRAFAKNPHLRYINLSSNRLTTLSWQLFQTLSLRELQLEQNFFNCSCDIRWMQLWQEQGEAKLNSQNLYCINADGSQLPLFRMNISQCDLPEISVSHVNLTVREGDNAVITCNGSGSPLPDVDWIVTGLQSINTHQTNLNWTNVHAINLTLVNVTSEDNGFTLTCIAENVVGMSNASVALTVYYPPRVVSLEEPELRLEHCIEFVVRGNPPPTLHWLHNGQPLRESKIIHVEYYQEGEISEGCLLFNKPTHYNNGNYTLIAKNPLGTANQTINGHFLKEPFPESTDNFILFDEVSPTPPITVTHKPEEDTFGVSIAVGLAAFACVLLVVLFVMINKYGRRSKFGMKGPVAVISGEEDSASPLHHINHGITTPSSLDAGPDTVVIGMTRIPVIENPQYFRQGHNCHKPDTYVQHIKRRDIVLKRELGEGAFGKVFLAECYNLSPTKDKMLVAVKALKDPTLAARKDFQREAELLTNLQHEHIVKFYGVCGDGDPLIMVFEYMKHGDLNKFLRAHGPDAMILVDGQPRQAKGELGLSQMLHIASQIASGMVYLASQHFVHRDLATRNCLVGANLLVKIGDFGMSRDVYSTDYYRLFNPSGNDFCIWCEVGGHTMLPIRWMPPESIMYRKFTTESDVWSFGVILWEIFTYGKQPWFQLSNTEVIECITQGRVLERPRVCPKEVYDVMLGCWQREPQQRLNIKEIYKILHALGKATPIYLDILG
Chain of Ribosomal protein S6 kinase alpha-1 (Homo sapiens) (Q15418 whole entry): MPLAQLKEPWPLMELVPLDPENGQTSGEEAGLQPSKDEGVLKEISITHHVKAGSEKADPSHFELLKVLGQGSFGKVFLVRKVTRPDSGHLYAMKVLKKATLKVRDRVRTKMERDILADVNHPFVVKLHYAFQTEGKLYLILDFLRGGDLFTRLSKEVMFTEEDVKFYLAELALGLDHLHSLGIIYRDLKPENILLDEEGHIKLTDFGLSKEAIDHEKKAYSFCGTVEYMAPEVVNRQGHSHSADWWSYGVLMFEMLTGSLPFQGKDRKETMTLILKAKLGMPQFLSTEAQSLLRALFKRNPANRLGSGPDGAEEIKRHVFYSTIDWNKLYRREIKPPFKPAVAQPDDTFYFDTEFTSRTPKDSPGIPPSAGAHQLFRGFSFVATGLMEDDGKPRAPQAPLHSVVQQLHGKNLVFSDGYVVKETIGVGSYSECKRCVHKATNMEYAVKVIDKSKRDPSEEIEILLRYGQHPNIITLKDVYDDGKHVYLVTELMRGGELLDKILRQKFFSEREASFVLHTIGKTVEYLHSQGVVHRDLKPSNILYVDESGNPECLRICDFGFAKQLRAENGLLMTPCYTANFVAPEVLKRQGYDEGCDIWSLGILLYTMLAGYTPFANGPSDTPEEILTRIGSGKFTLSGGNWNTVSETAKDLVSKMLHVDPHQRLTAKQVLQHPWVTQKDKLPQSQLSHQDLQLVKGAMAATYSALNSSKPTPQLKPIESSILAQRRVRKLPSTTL

- % Residual activity with Skepinone-L [1]: 43%
- % Residual activity with Skepinone-L [2]: 97%
- % Residual activity with Skepinone-L [3]: 94%
- % Residual activity with Skepinone-L [4]: 120%
- % Residual activity with Skepinone-L [5]: 119%
- % Residual activity with Skepinone-L [6]: 95%
- % Residual activity with Skepinone-L [7]: 99%
- % Residual activity with Skepinone-L [8]: 115%
- % Residual activity with Skepinone-L [9]: 100%
- inhibition [10]: 45.5%
- % Residual activity with Skepinone-L [11]: 80%
- % Residual activity with Skepinone-L [12]: 95%
- % Residual activity with Skepinone-L [13]: 79%
- % Residual activity with Skepinone-L [14]: 74%
- % Residual activity with Skepinone-L [15]: 89%
- % Residual activity with Skepinone-L [16]: 100%
- % Residual activity with Skepinone-L [17]: 99%
- % Residual activity with Skepinone-L [18]: 83%
- % Residual activity with Skepinone-L [19]: 101%
- % Residual activity with Skepinone-L [20]: 97%
- % Residual activity with Skepinone-L [21]: 89%
- % Residual activity with Skepinone-L [22]: 89%
- inhibition [23]: 10.9%
- % Residual activity with Skepinone-L [24]: 95%
- % Residual activity with Skepinone-L [26]: 100%
- % Residual activity with Skepinone-L [27]: 119%
- % Residual activity with Skepinone-L [28]: 106%
- inhibition [29]: 7.19%
- % Residual activity with Skepinone-L [30]: 119%
- inhibition [31]: -4%
- inhibition [32]: 12.8%
- % Residual activity with Skepinone-L [33]: 115%
- % Residual activity with Skepinone-L [34]: 106%
- % Residual activity with Skepinone-L [35]: 102%
- % Residual activity with Skepinone-L [36]: 105%
- % Residual activity with Skepinone-L [37]: 86%
- % Residual activity with Skepinone-L [38]: 90%
- inhibition [39]: 10.8%
- % Residual activity with Skepinone-L [40]: 83%
- % Residual activity with Skepinone-L [41]: 85%
- % Residual activity with Skepinone-L [42]: 101%
- % Residual activity with Skepinone-L [43]: 89%
- % Residual activity with Skepinone-L [44]: 104%
- % Residual activity with Skepinone-L [46]: 115%
- inhibition [47]: 4.37%
Compound: O=C1c2ccc(Nc3ccc(F)cc3F)cc2CCc2ccc(OC[C@H](O)CO)cc21 [Skepinone-L]
- % Residual activity with Skepinone-L [25]: 89%
- % Residual activity with Skepinone-L [45]: 104%
